{"source": "patent US12565475B2", "about": "“Small molecule compound inhibiting signal transmission path of TLR7 and TLR9 and use thereof” (AJOU UNIVERSITY INDUSTRY-ACADEMIC COOPERATION FOUNDATION, priority 2019, dated 2026)", "target": "T1, TLR8 (Homo sapiens, UniProt Q9NR97)", "T1 construct": "treated with TIC10-7 for 1 hour, and then treated with TL8-506 as a TLR8 agonist for 4 hours; endogenous in cells; host or cells: THP-1 differentiated with PMA", "T1 sequence (Q9NR97 27-1041)": "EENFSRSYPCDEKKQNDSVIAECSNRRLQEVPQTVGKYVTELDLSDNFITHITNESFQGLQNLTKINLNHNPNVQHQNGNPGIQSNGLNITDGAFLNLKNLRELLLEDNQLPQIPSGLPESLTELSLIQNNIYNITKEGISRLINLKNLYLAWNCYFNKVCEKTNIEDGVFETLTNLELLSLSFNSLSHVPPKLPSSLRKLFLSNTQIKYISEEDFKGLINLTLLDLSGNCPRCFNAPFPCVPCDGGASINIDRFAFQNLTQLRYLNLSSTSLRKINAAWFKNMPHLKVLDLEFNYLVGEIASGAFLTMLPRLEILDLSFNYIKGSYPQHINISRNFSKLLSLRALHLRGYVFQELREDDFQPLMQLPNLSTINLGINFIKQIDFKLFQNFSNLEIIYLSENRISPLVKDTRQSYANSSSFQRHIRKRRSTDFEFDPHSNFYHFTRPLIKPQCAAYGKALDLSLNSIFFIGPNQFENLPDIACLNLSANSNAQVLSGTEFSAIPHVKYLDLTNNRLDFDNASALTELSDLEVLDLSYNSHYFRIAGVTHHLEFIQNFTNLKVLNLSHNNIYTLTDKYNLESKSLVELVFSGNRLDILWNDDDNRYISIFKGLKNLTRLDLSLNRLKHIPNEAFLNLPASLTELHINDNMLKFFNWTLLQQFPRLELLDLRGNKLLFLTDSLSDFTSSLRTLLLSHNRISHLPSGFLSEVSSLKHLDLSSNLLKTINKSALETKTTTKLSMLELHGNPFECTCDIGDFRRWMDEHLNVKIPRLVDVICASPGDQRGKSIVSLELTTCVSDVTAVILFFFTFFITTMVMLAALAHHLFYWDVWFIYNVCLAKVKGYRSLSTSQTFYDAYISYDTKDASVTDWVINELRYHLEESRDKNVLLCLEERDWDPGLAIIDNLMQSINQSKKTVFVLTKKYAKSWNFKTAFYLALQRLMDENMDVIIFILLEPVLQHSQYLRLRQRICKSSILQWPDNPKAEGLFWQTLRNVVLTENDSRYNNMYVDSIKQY", "experiment": "TLR8-mediated TNF-α secretion (TL8-506) in PMA-differentiated THP-1 cells, ELISA", "type": "cell-based", "conditions": "differentiated THP-1, 10 or 20 μM", "protocol": "A murine macrophage cell line (RAW 264.7) was obtained from the Korean Cell Line Bank (KCLB) and the Korean Cell Line Research Foundation (KCLRF). The cells were cultured in DMEM (Dulbecco's modified Eagle's medium; HyClone Laboratories, Inc., San Angelo, Texas, USA) supplemented with 1% penicillin/streptomycin (HyClone Laboratories, Inc.) antibiotic mixture and 10% fetal bovine serum (FBS; Thermo Fisher Scientific, Inc., Waltham, MA, USA). A human monocytic cell line (THP-1) was provided by Dr. Chang-Hee Suh, Ajou University School of Medicine, Suwon, Korea. […]\nAgonists specific to TLR1/TLR2 (Pam3CSK4), TLR2/TLR6 (FSL-1), TLR3 (Poly I:C), TLR7 (imiquimod), and TLR8 (TL8-506) were purchased from InvivoGen Ltd. (Hong-Kong, China), and a TLR4-specific agonist (LPS from E. coli O111:B4) was purchased from Sigma-Aldrich, Inc. For TLR9-specific stimulation, class C CpG-ODN (ODN2395, 5′-TCGTCGTTTTCGGCGCGCGCCG-3′) having full phosphorothioate backbone modification was synthesized (Bioneer, Inc., Daejeon, Korea). […] The cells were treated with test compounds or a control medium for 1 hour, and then stimulated with a TLR agonist for 4 hours, or 24 hours in the case of poly(I:C), and the cytokine secretion was monitored. […]"}
{"molecule": "COc1ccc(CNc2ncc(-c3ccc4c(c3)OCO4)n2C)c(OC)c1", "note": "[TIC10-7, 5-(2H-1,3-benzodioxol-5-yl)-N-[(2,4-dimethoxyphenyl)methyl]-1-methyl-1H-imidazol-2-amine]", "values": [{"measurement": "TLR8-mediated TNF-α secretion", "value": "least affected"}]}
